Earlier results in patent US20090255536A1, “Biofilm-Inhibiting Catheters and Tubings” (priority 2008, published 2009).

Legend:
Pseudomonas aeruginosa = details: topical exogenous gNO at 200 ppm for extended periods of time
[1] = test system: cultured human dermal fibroblasts; details: gNO at 200 ppm for extended periods of time
Candida albicans = details: topical exogenous gNO at 200 ppm for extended periods of time
Group B Streptococcus = details: topical exogenous gNO at 200 ppm for extended periods of time
Staphylococcus aureus = details: topical exogenous gNO at 200 ppm for extended periods of time
[2] = test system: S. aureus and P. aeruginosa; details: exogenous gNO at 200 ppm
Escherichia coli = details: topical exogenous gNO at 200 ppm for extended periods of time

[N]=O [gNO, nitric oxide]
growth of Pseudomonas aeruginosa (Pseudomonas aeruginosa): inhibited and prevented the growth | cytotoxic effects on cultured human dermal fibroblasts [1]: without any cytotoxic effects | growth of Candida albicans (Candida albicans): inhibited and prevented the growth | growth of Group B Streptococcus (Group B Streptococcus): inhibited and prevented the growth | growth of Staphylococcus aureus (Staphylococcus aureus): inhibited and prevented the growth | time to clear nosocomial pneumonia caused by microbial pathogens [2]: about 6 hours | growth of Escherichia coli (Escherichia coli): inhibited and prevented the growth
